Experimental data: ChEMBL document CHEMBL3872204, “Synthesis and immunopotentiating activity of novel isoxazoline functionalized coumarins” (Eur J Med Chem, 2016)
Active and inactive are the calls of the source. The rule behind the calls is not given here.

How the values were obtained:
[1] = system: Splenic lymphocyte; assay: Immunopotentiating activity in splenic lymphocytes (unknown origin) assessed as effect on proliferation by measuring cell viability pretreated followed by incubation of lymphocytes with ConA for 48 hrs by MTT assay; type: functional, cell-based
[2] = system: Splenic lymphocyte; assay: Immunopotentiating activity in splenic lymphocytes (unknown origin) assessed as effect on proliferation by measuring cell viability pretreated followed by incubation of lymphocytes with LPS for 48 hrs by MTT assay; type: functional, cell-based
[3] = system: Splenic lymphocyte; assay: Immunopotentiating activity in splenic lymphocytes (unknown origin) assessed as effect on proliferation by measuring cell viability at 10 ug/ml pretreated followed by incubation of lymphocytes with LPS for 48 hrs by MTT assay; type: functional, cell-based
[4] = system: Splenic lymphocyte; assay: Immunopotentiating activity in splenic lymphocytes (unknown origin) assessed as effect on proliferation by measuring cell viability at 0.1 to 1 ug/ml pretreated followed by incubation of lymphocytes with ConA for 48 hrs by MTT assay; type: functional, cell-based
[5] = system: Splenic lymphocyte; assay: Immunopotentiating activity in splenic lymphocytes (unknown origin) assessed as effect on proliferation by measuring cell viability at 0.1 to 1 ug/ml pretreated followed by incubation of lymphocytes with LPS for 48 hrs by MTT assay; type: functional, cell-based
[6] = system: Splenic lymphocyte; assay: Immunopotentiating activity in splenic lymphocytes (unknown origin) assessed as effect on proliferation by measuring cell viability at 10 ug/ml pretreated followed by incubation of lymphocytes with ConA for 48 hrs by MTT assay; type: functional, cell-based
[7] = system: Mus musculus; assay: Immunopotentiating activity in sheep RBC-immunized BALB/c mouse assessed as increase in IL4 production in splenocytes administered orally for 14 days followed by incubation with ConA for 48 hrs by ELISA; type: functional, cell-based
[8] = system: Mus musculus; assay: Immunopotentiating activity in sheep RBC-immunized BALB/c mouse assessed as B-cell activation by measuring IgG antibody titer in serum at 0.001 mg/kg, po for 14 days by hemagglutinination technique; type: functional, organism-based
[9] = system: Mus musculus; assay: Immunopotentiating activity in sheep RBC-immunized BALB/c mouse assessed as increase in isolated splenic […] proliferation administered orally for 14 days followed by incubation of isolated splenocytes with ConA for 72 hrs by MTT assay; type: functional
[10] = system: Mus musculus; assay: Immunopotentiating activity in sheep RBC-immunized BALB/c mouse assessed as CD8-positive T-cell content in spleen at 0.1 mg/kg, po for 14 days by flow cytometry (reference value: 1.47 +/- 0.04 10^7No_unit); type: functional
[11] = system: Mus musculus; assay: Immunopotentiating activity in sheep RBC-immunized BALB/c mouse assessed as B-cell activation by measuring IgG antibody titer in serum at 0.1 mg/kg, po for 14 days by hemagglutinination technique; type: functional, organism-based
[12] = system: Mus musculus; assay: Immunopotentiating activity in sheep RBC-immunized BALB/c mouse assessed as ratio of CD4-positive splenic T-cells to CD8-positive splenic T-cells at 0.01 mg/kg, po for 14 days by flow cytometry (RVB = 1.56 +/- 0.09); type: functional
[13] = system: Mus musculus; assay: Immunopotentiating activity in sheep RBC-immunized BALB/c mouse assessed as CD8-positive T-cell content in spleen at 0.01 mg/kg, po for 14 days by flow cytometry (reference value: 1.47 +/- 0.04 10^7No_unit); type: functional
[14] = system: Mus musculus; assay: Immunopotentiating activity in sheep RBC-immunized BALB/c mouse assessed as increase in delayed-type hypersensitivity response by measuring left hind foot pad thickness at 0.001 mg/kg, po qd administered 2 hrs post immunization for 7 days measured 24 to 48 hrs post SRBC challenge by spheromicrometer method; type: functional, organism-based
[15] = system: Mus musculus; assay: Immunopotentiating activity in sheep RBC-immunized BALB/c mouse assessed as CD4-positive T-cell content in spleen at 0.01 mg/kg, po for 14 days by flow cytometry (reference value: 2.7 +/- 0.12 10^7No_unit); type: functional
[16] = system: Mus musculus; assay: Immunopotentiating activity in sheep RBC-immunized BALB/c mouse assessed as CD8-positive T-cell content in spleen at 0.001 mg/kg, po for 14 days by flow cytometry (reference value: 1.47 +/- 0.04 10^7No_unit); type: functional
[17] = system: Mus musculus; assay: Immunopotentiating activity in sheep RBC-immunized BALB/c mouse assessed as increase in macrophage production by measuring increase in NO production administered orally for 14 days followed by incubation with LPS for 48 hrs by Griess assay; type: functional
[18] = system: Mus musculus; assay: Immunopotentiating activity in sheep RBC-immunized BALB/c mouse assessed as CD4-positive splenic T-cells at 0.1 mg/kg, po for 14 days by flow cytometry (reference value: 20.7 +/- 0.9%); type: functional
[19] = species on record: Mus musculus; assay: Cytotoxicity in BALB/c mouse splenocytes at 100 ug/ml measured after 72 hrs by MTT assay; type: toxicity; conditions: splenocyte
[20] = system: Mus musculus; assay: Immunopotentiating activity in sheep RBC-immunized BALB/c mouse assessed as increase in isolated splenic T-cell proliferation administered orally for 14 days followed by incubation of isolated splenocytes with LPS for 72 hrs by MTT assay; type: functional
[21] = system: Mus musculus; assay: Immunopotentiating activity in sheep RBC-immunized BALB/c mouse assessed as increase in isolated splenic T-cell proliferation administered orally for 14 days followed by incubation of isolated splenocytes with ConA for 72 hrs by MTT assay; type: functional
[22] = system: Mus musculus; assay: Immunopotentiating activity in sheep RBC-immunized BALB/c mouse assessed as B-cell activation by measuring IgM antibody titer in serum at 0.1 mg/kg, po for 14 days measured on day 7 post dose by hemagglutinination technique; type: functional, organism-based
[23] = system: Mus musculus; assay: Immunopotentiating activity in sheep RBC-immunized BALB/c mouse assessed as CD4-positive splenic T-cells at 0.01 mg/kg, po for 14 days by flow cytometry (reference value: 20.7 +/- 0.9%); type: functional
[24] = system: Mus musculus; assay: Immunopotentiating activity in sheep RBC-immunized BALB/c mouse assessed as B-cell activation by measuring IgM antibody titer in serum at 0.01 mg/kg, po for 14 days measured on day 7 post dose by hemagglutinination technique; type: functional, organism-based
[25] = system: Mus musculus; assay: Immunopotentiating activity in sheep RBC-immunized BALB/c mouse assessed as CD8-positive splenic T-cells at 0.1 mg/kg, po for 14 days by flow cytometry (reference value: 13.3 +/- 0.34%); type: functional
[26] = system: Mus musculus; assay: Immunopotentiating activity in sheep RBC-immunized BALB/c mouse assessed as B-cell activation by measuring IgM antibody titer in serum at 0.001 mg/kg, po for 14 days measured on day 7 post dose by hemagglutinination technique; type: functional, organism-based
[27] = system: Mus musculus; assay: Immunopotentiating activity in sheep RBC-immunized BALB/c mouse assessed as ratio of CD4-positive splenic T-cells to CD8-positive splenic T-cells at 0.001 mg/kg, po for 14 days by flow cytometry (RVB = 1.56 +/- 0.09); type: functional
[28] = system: Mus musculus; assay: Immunopotentiating activity in sheep RBC-immunized BALB/c mouse assessed as increase in isolated splenic B-cell proliferation administered orally for 14 days followed by incubation of isolated splenocytes with LPS for 72 hrs by MTT assay; type: functional
[29] = system: Mus musculus; assay: Immunopotentiating activity in sheep RBC-immunized BALB/c mouse assessed as increase in IL2 production in splenocytes administered orally for 14 days followed by incubation with ConA for 48 hrs by ELISA; type: functional, cell-based
[30] = system: Mus musculus; assay: Immunopotentiating activity in sheep RBC-immunized BALB/c mouse assessed as CD4-positive T-cell content in spleen at 0.001 mg/kg, po for 14 days by flow cytometry (reference value: 2.7 +/- 0.12 10^7No_unit); type: functional
[31] = system: Mus musculus; assay: Immunopotentiating activity in sheep RBC-immunized BALB/c mouse assessed as CD8-positive splenic T-cells at 0.001 mg/kg, po for 14 days by flow cytometry (reference value: 13.3 +/- 0.34%); type: functional
[32] = system: Mus musculus; assay: Immunopotentiating activity in sheep RBC-immunized BALB/c mouse assessed as CD4-positive T-cell content in spleen at 0.1 mg/kg, po for 14 days by flow cytometry (reference value: 2.7 +/- 0.12 10^7No_unit); type: functional
[33] = system: Mus musculus; assay: Immunopotentiating activity in sheep RBC-immunized BALB/c mouse assessed as CD8-positive splenic T-cells at 0.01 mg/kg, po for 14 days by flow cytometry (reference value: 13.3 +/- 0.34%); type: functional
[34] = system: Mus musculus; assay: Immunopotentiating activity in sheep RBC-immunized BALB/c mouse assessed as ratio of CD4-positive splenic T-cells to CD8-positive splenic T-cells at 0.1 mg/kg, po for 14 days by flow cytometry (RVB = 1.56 +/- 0.09); type: functional
[35] = system: Mus musculus; assay: Immunopotentiating activity in sheep RBC-immunized BALB/c mouse assessed as B-cell activation by measuring IgG antibody titer in serum at 0.01 mg/kg, po for 14 days by hemagglutinination technique; type: functional, organism-based
[36] = system: Mus musculus; assay: Immunopotentiating activity in sheep RBC-immunized BALB/c mouse assessed as increase in interferon-gamma production in splenocytes administered orally for 14 days followed by incubation with ConA for 48 hrs by ELISA; type: functional, cell-based
[37] = system: Mus musculus; assay: Immunopotentiating activity in sheep RBC-immunized BALB/c mouse assessed as CD4-positive splenic T-cells at 0.001 mg/kg, po for 14 days by flow cytometry (reference value: 20.7 +/- 0.9%); type: functional

`Cc1ccccc1C1=NOC(COc2ccc3ccc(=O)oc3c2)C1` (stereo not given) was tested, and the Activity [1] was “Dose-dependent effect” and the Activity [2] was “Dose-dependent effect”.

`Cc1ccc(C2=NOC(COc3ccc4ccc(=O)oc4c3)C2)cc1` (stereo not given) was tested, and the Activity [1] was “Dose-dependent effect” and the Activity [2] was “Dose-dependent effect”.

In the case of `O=c1ccc2ccc(OCC3CC(c4ccc(Br)cc4)=NO3)cc2o1` (stereo not given), the Activity [3] is reported as “Active”, the Activity [4] is reported as “Active” and the Activity [5] is reported as “Active”. For the same compound, the Activity [6] was “Active”.

With `COc1ccccc1C1=NOC(COc2ccc3ccc(=O)oc3c2)C1` (stereo not given) the Activity [7] was “Dose-dependent effect”, the Activity [1] was “Dose-dependent effect” and the Activity [8] was “Active”. The Activity [9] was “Dose-dependent effect”, the Activity [10] was 1.37 ×10⁷ No_unit and the Activity [11] was “Active”. For the same compound, the Ratio [12] was 1.58, the Activity [2] was “Dose-dependent effect” and the Activity [13] was 1.18 ×10⁷ No_unit. The Activity [14] was “Active”, the Activity [15] was 1.31 ×10⁷ No_unit and the Activity [16] was 0.88 ×10⁷ No_unit. For the same compound, the Activity [17] was “Dose-dependent effect”, the Activity [18] was 31.1% and the Activity [19] was “Non-Toxic”. The Activity [20] was “Dose-dependent effect”, the Activity [21] was “Dose-dependent effect” and the Activity [22] was “Active”. For the same compound, the Activity [23] was 24.2%, the Activity [24] was “Active” and the Activity [25] was 18.4%. For the same compound, the Activity [26] was “Active”, the Ratio [27] was 1.32 and the Activity [28] was “Dose-dependent effect”. The Activity [29] was “Dose-dependent effect”, the Activity [30] was 1.02 ×10⁷ No_unit and the Activity [31] was 15.4%. It also gave an Activity [32] of 1.51 ×10⁷ No_unit, an Activity [33] of 15.3% and a Ratio [34] of 1.69. The Activity [35] was “Active”, the Activity [36] was “Dose-dependent effect” and the Activity [37] was 20.3%.

`O=c1ccc2ccc(O)cc2o1` was tested, and the Activity [3] was “Active”, the Activity [4] was “Active” and the Activity [5] was “Active”. For the same compound, the Activity [6] was “Active”.
